Data on two molecules can be found in ChEMBL document CHEMBL4033763, “Synthesis and Anti-HCV Activity of a Novel 2',3'-Dideoxy-2'-α-fluoro-2'-β-C-methyl Guanosine Phosphoramidate Prodrug” (ACS Med Chem Lett, 2017).

Data set [1] in a line: Cytotoxicity against human HuH7 cells expressing HIV LTR promoter driven luciferase reporter gene in presence of 10% fetal bovine serum by lucifrease reporter gene assay. Type of data set: cell-based, Huh-7. For orientation: A reporter such as luciferase makes a cellular process visible.
Data set [2] relates to Hepatitis C virus. The experiment in a line: Antiviral activity against HCV 1b replicon infected in human HuH7 cells expressing HIV LTR promoter driven luciferase reporter gene assessed as reduction in viral RNA replication incubated for 48 hrs by lucifrease reporter gene assay. Type of data set: functional, cell-based, Hepacivirus hominis. The following applies: genotype 1b, Huh-7, 48 h. For orientation: A replicon is a self-replicating genome or part of one, used to study replication in cells.

For data set [3], the system named is Hepatitis C virus. As to the kind of experiment: Antiviral activity against HCV 1a replicon infected in human HuH7 cells expressing HIV LTR promoter driven luciferase reporter gene assessed as reduction in viral RNA replication incubated for 48 hrs by lucifrease reporter gene assay. In kind it is functional, cell-based, Hepacivirus hominis. The following applies: subtype 1a, Huh-7, 48 h.

Data set [4] concerns Hepatitis C virus. The experiment in a line: Antiviral activity against HCV 2a replicon infected in human HuH7 cells expressing HIV LTR promoter driven luciferase reporter gene assessed as reduction in viral RNA replication incubated for 48 hrs by lucifrease reporter gene assay. In kind it is functional, cell-based, Hepacivirus hominis. Conditions: genotype 2a, Huh-7, 48 h.

The test system of data set [5] is Hepatitis C virus. As to the kind of experiment: Antiviral activity against NS5B S282T mutant expressing HCV 1b replicon infected in human HuH7 cells expressing HIV LTR promoter driven luciferase reporter gene assessed as reduction in viral RNA replication incubated for 48 hrs by lucifrease reporter gene assay. Type of data set: functional, cell-based, Hepacivirus hominis. Conditions: genotype 1b, Huh-7, 48 h.

Each structure is given as a SMILES string. A value given as a limit tells only on which side of the number the result lay.

As to `COc1nc(N)nc2c1ncn2[C@@H]1O[C@H](CO[P@@](=O)(N[C@@H](C)C(=O)OC2CCCC2)Oc2ccccc2)C[C@@]1(C)F`, the CC50 in data set [1] is greater than 100000 nM. Further, the EC50 came out at 580 nM in the data set on Hepatitis C virus [2], 1100 nM in the data set with Hepatitis C virus [3], 390 nM with Hepatitis C virus [4] and 810 nM in the data set on Hepatitis C virus [5].
Regarding `COc1nc(N)nc2c1ncn2[C@@H]1O[C@H](CO)C[C@@]1(C)F`, the 50% cytotoxic concentration (CC50) in data set [1] was greater than 100000 nM. For the same molecule, in the data set with Hepatitis C virus [2], the EC50 is greater than 100000 nM.

In general, CC50 refers to the concentration that lowers cell viability or growth by half. The EC50 is the concentration giving half of the maximal effect.
